In ChEMBL document CHEMBL1201862, “PubChem BioAssay data set” (2004):
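In this assay, cells in 96-well plates receive the compound at five concentrations for 48 hours. Endpoints are linearly interpolated between the surrounding concentrations. At the GI50, growth is halved.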 Active and inactive are the calls of the source. Cut-off read from the data, not from the text of the source: active = GI50 up to about 1.1 µM and inactive = higher.

Legend:
Test in all cases: growth of human tumour cells (NCI), 48 h
A498 = test system: A498
ACHN = test system: ACHN
HCC 2998 = test system: HCC 2998
HCT-116 = test system: HCT-116
HCT-15 = test system: HCT-15
HOP-62 = test system: HOP-62
HOP-92 = test system: HOP-92
IGROV-1 = test system: IGROV-1
K562 = test system: K562
M14 = test system: M14
Malme-3M = test system: Malme-3M
NCI-H226 = test system: NCI-H226
RXF 393 = test system: RXF 393
SF-268 = test system: SF-268
SF-295 = test system: SF-295
SK-MEL-28 = test system: SK-MEL-28
SNB-19 = test system: SNB-19
SW-620 = test system: SW-620
UACC-257 = test system: UACC-257
RPMI-8226 = test system: RPMI-8226

Compound	GI50 (A498)	GI50 (ACHN)	GI50 (HCC 2998)	GI50 (HCT-116)	GI50 (HCT-15)	GI50 (HOP-62)	GI50 (HOP-92)	GI50 (IGROV-1)	GI50 (K562)	GI50 (M14)	GI50 (Malme-3M)	GI50 (NCI-H226)	GI50 (RXF 393)	GI50 (SF-268)	GI50 (SF-295)	GI50 (SK-MEL-28)	GI50 (SNB-19)	GI50 (SW-620)	GI50 (UACC-257)	GI50 (RPMI-8226)
COC(=O)c1cc2c(s1)C(=O)c1ccccc1-2	> 100 µM (inactive)	> 100 µM (inactive)	> 100 µM (inactive)	> 100 µM (inactive)	> 100 µM	> 100 µM (inactive)	> 100 µM (inactive)	> 100 µM (inactive)	> 100 µM (inactive)	> 100 µM (inactive)	> 100 µM (inactive)	> 100 µM (inactive)	> 100 µM (inactive)	> 100 µM (inactive)	> 100 µM (inactive)	> 100 µM (inactive)	> 100 µM (inactive)	> 100 µM (inactive)	> 100 µM (inactive)	–
C[C@]12CC[C@H](OC3CCCCO3)CC1=CC[C@@H]1C2CC[C@]2(C)/C(=N/OCCC#N)CCC12 (stereo partly specified)	> 100 µM (inactive)	33.8 µM (inactive)	> 100 µM (inactive)	5.73 µM (inactive)	> 100 µM	> 100 µM (inactive)	21.9 µM (inactive)	> 100 µM (inactive)	6.95 µM (inactive)	> 100 µM (inactive)	> 100 µM (inactive)	–	16 µM (inactive)	–	21.3 µM (inactive)	> 100 µM (inactive)	30.7 µM (inactive)	> 100 µM (inactive)	6.62 µM (inactive)	> 100 µM (inactive)
Cc1nc2n(c1/C=C1/C(=O)Nc3cccc(Cl)c31)CCS2	30 µM (inactive)	31 µM (inactive)	> 100 µM (inactive)	42.2 µM (inactive)	89.1 µM	24 µM (inactive)	20.7 µM (inactive)	48.8 µM (inactive)	20.3 µM (inactive)	> 100 µM (inactive)	50.2 µM (inactive)	–	20.7 µM (inactive)	19.5 µM (inactive)	27.5 µM (inactive)	> 100 µM (inactive)	27.2 µM (inactive)	> 100 µM (inactive)	> 100 µM (inactive)	> 100 µM (inactive)
C=CC[N+]12CN3CN(CN(C3)C1)C2	32.8 µM (inactive)	21.3 µM (inactive)	24 µM (inactive)	19 µM (inactive)	22.6 µM	> 100 µM (inactive)	23.8 µM (inactive)	27.4 µM (inactive)	19.2 µM (inactive)	25.8 µM (inactive)	18.7 µM (inactive)	–	18.5 µM (inactive)	24.6 µM (inactive)	> 100 µM (inactive)	21.3 µM (inactive)	40 µM (inactive)	5.94 µM (inactive)	24.5 µM (inactive)	4.14 µM (inactive)
CC(C)C(=O)/C=C/c1ccc(Br)cc1	14.5 µM (inactive)	12.7 µM (inactive)	17.1 µM (inactive)	6.14 µM (inactive)	–	–	16.4 µM (inactive)	19.2 µM (inactive)	3.94 µM (inactive)	17.9 µM (inactive)	–	–	18.3 µM (inactive)	23 µM (inactive)	15.5 µM (inactive)	20.1 µM (inactive)	16 µM (inactive)	5.51 µM (inactive)	16.5 µM (inactive)	5.38 µM (inactive)
